Experimental findings from ChEMBL document CHEMBL1781914, “Syntheses and initial evaluation of a series of indolo-fused heterocyclic inhibitors of the polymerase enzyme (NS5B) of the hepatitis C virus” (Bioorg Med Chem Lett, 2011) are described below.

Data set [1] concerns Hepatitis C virus. Put plainly: Inhibition of HCV genotype 1b NS5B polymerase expressed in Escherichia coli BL21(DE3) after 60 mins by FRET assay. More on the design: species or system Hepatitis C virus subtype 1b. The note with it: BL21-DE3, 1 h.
For data set [2], the system named is Hepatitis C virus. The data set is described as follows: Antiviral activity against HCV infected in human Huh7 cells assessed as inhibition of viral replication by luciferase assay. In kind it is functional, organism-based, Hepacivirus hominis. The note with it: Huh-7.
The nature of data set [3]: Oral bioavailability in rat. The format is ADME, organism-based. The note with it: in vivo.
Data set [4] can be described thus: AUC in iv and po dosed rat. In kind it is ADME, organism-based. The note with it: plasma.
Data set [5] can be described thus: Drug clearance in rat at 2 mg/kg, iv. On the set-up: dose 2 mg/kg, route intravenous. In kind it is ADME, organism-based. The note with it: in vivo.

As a reminder, the IC50 is the concentration that inhibits the measured activity by half. The low end stands for greater potency in that assay, the high end for weaker potency in that assay. A word on the EC50: it is the concentration giving half of the maximal effect. Turning to `O=C(O)c1ccc2c(C3CCCCC3)c3n(c2c1)CCCCNc1ccccc1-3`, in data set [1], inhibition was half-maximal at 600 nM (IC50). In addition, the EC50 in data set [2] is 270 nM.

A word on the bioavailability: it is dose-corrected exposure relative to a reference, in per cent. Higher therefore signals good availability. As a reminder, the AUC is concentration integrated over time. One may read the clearance as the rate of elimination divided by the concentration. Low readings indicate a low capacity for elimination, high ones a high capacity for elimination. As to `O=C(O)/C=C/c1ccc(OC(=O)C2(NC(=O)c3ccc4c(C5CCCCC5)c5n(c4c3)CC(=O)Nc3ccccc3-5)CCCC2)cc1`, the bioavailability in data set [3] is 3%. The molecule further had an AUC in data set [4] of 0.66 µM·h. Further, the clearance in data set [5] was 13 mL/min/kg. In data set [1], this molecule had a half-maximal inhibitory concentration (IC50) of 20 nM. The 50% effective concentration (EC50) in data set [2] came to 10 nM.

The molecule `O=C(O)/C=C/c1ccc(OC(=O)C2(NC(=O)c3ccc4c(C5CCCCC5)c5n(c4c3)CCOc3ccccc3-5)CCCC2)cc1` had a bioavailability in data set [3] of 5%. The molecule also returned an exposure (AUC) in data set [4] of 0.79 µM·h. Moreover, the clearance in data set [5] turned out to be 17 mL/min/kg. In addition, the half-inhibitory concentration (IC50) in data set [1] came out at 30 nM. Besides, the concentration for a half-maximal effect (EC50) in data set [2] was 10 nM.

In the case of `O=C(O)c1ccc2c(C3CCCCC3)c3n(c2c1)CCOc1ccccc1-3`, the midpoint of inhibition in data set [1], the IC50, lay at 690 nM. Also, the EC50 in data set [2] came out at 590 nM.

In turn, `O=C(O)c1ccc2c(C3CCCCC3)c3n(c2c1)CCCc1ccccc1-3` showed a half-inhibitory concentration (IC50) in data set [1] of 840 nM. For the same molecule, the concentration for a half-maximal effect (EC50) in data set [2] came to 700 nM.

In turn, `O=C(O)/C=C/c1ccc(OC(=O)C2(NC(=O)c3ccc4c(C5CCCCC5)c5n(c4c3)CCCCNc3ccccc3-5)CCCC2)cc1` registered a bioavailability in data set [3] of 12.3%. This molecule also came in with an AUC in data set [4] of 3.61 µM·h. This molecule had a clearance in data set [5] of 8.7 mL/min/kg. The molecule also gave an IC50 in data set [1] of 90 nM. Besides, the EC50 in data set [2] turned out to be 20 nM.

With `O=C(O)/C=C/c1ccc(OC(=O)C2(NC(=O)c3ccc4c(C5CCCCC5)c5n(c4c3)CCCc3ccccc3-5)CCCC2)cc1`, the bioavailability in data set [3] turned out to be 8%. The same molecule returned an area under the curve (AUC) in data set [4] of 0.28 µM·h. For the same molecule, the clearance in data set [5] amounted to 250 mL/min/kg. Half-maximal inhibition in data set [1] (IC50) was put at 30 nM. Besides, the EC50 in data set [2] turned out to be 20 nM.

`O=C1Cn2c(c(C3CCCCC3)c3ccc(C(=O)O)cc32)-c2ccccc2N1` gave a bioavailability in data set [3] of 17.6%. Also, in data set [1], the IC50 was found to be 70 nM. Also, the EC50 in data set [2] was found to be 240 nM.
